Measured values reported in ChEMBL document CHEMBL1157539, “Thousands of chemical starting points for antimalarial lead identification” (Nature, 2010).

Tested on: Plasmodium falciparum
Test: GSK_TCMDC: Inhibition of Plasmodium falciparum 3D7 in whole erythrocytes, using parasite LDH activity as an index of growth.
Assay type: functional, organism-based

| Structure (SMILES) | XC50 (Plasmodium falciparum, 3D7) | XC50 |
| --- | --- | --- |
| CCOc1ccc2[nH]c(-c3ccccc3)cc(=NN=Cc3ccncc3)c2c1 | 149 nM |  |
| Cc1cc2nc(-c3ccc(C(=O)NCc4cccc(C(F)(F)F)c4)cc3)[nH]c2cc1C | 807 nM |  |
| COc1ccc2nccc([C@@H](O)CN3CCC(NCc4ccc5c(n4)NC(=O)CS5)C(F)C3)c2c1 (stereo partly drawn) | 912 nM |  |
| Cc1nc(-c2ccc(-c3ccc(NC(=O)c4coc5ccc(N6CC(C)N(C)C(C)C6)cc45)cc3)c(C)c2)no1 (stereo not drawn) | 767 nM |  |
| CC(C)C[C@@H]1C(=O)N[C@H](C2Cc3ccccc3C2)C(=O)N1[C@@H](C(=O)O)c1ccc(F)cc1F | 836 nM |  |
| C=C[C@]1(C)C[C@@H](OC(=O)CNC[C@@H](O)CN2C[C@H](c3ccnc4ccc(OC)nc34)OC2=O)[C@@]2(C)[C@@H]3C(=O)CC[C@@]3(CC[C@@H]2C)[C@@H](C)[C@@H]1O | 948 nM |  |
| Cc1[nH]c(C)c(-c2ccc(-c3ccccc3)nc2)c(=O)c1Br | 661 nM |  |
| Cc1c2ccncc2c(C)c2c1[nH]c1cc(Cc3ccccc3)c(O)cc12 | 148 nM |  |
| CC(=O)Nc1cccc(C(=O)Nc2ccc(-c3cccc(-c4nc5cc(F)ccc5[nH]4)c3)cc2)c1 | 633 nM |  |
| CC(C)[C@H](NC(=O)c1ccc(O)c(-c2ccc(Cl)c(Cl)c2)c1)C(=O)NCCN(C)C | 1050 nM |  |
| CC(=O)Nc1ccc(C(=O)Nc2cccc(-c3ccc(-c4nc5cccc(C)c5[nH]4)cc3)c2)cn1 | 191 nM |  |
| O=C(Nc1ccc(-c2nc3ccccc3[nH]2)cc1)C1CCN(Cc2ccccc2)CC1 | 1760 nM |  |
| Cc1cc2c(NC(=O)NC3CCN(CCc4ccccc4Cl)CC3)cccc2cn1 | 387 nM |  |
| CCN(CC)C(C)(C)CN(Cc1ccc(-c2ccc(C(F)(F)F)cc2)cc1)C(=O)Cn1c(CCc2cccc(F)c2F)nc(=O)c2ccccc21 | 958 nM |  |
| CCOC(=O)c1ccc(NC(=O)Nc2cccc(-c3ccc(-c4nc5cc(C(F)(F)F)ccc5[nH]4)cc3)c2)cc1 | 212 nM |  |
| O=[N+]([O-])c1ccc2c(c1)c1ccccc1n2Cc1ccccc1O | 1110 nM |  |
| CS(=O)(=O)c1ccc2c(c1)CCN(CCC1CCC(NC(=O)C(=Cc3ccc(Cl)cc3Cl)c3ccc(-c4ccccc4)cc3)CC1)CC2 (stereo not drawn) | 1170 nM |  |
| Cc1cccc2nc(-c3cccc(-c4cccc(CNCC5CCCO5)c4)c3)[nH]c12 (stereo not drawn) | 602 nM |  |
| N#Cc1ccc2c(c1)CCN(CCC1CCC(Nc3ncnc4ccccc34)CC1)C2 (stereo not drawn) | 635 nM |  |
| Cc1occc1C(=O)Nc1nc(-c2ccccn2)nc2ccsc12 | 899 nM |  |
| COc1cccc(-c2ccc3c(-c4cccc(S(C)(=O)=O)c4)cnc(N)c3c2)c1 | 874 nM |  |
| COc1c(F)ccc2ncc(Cl)c(CCN3CCC(NCc4ccc5c(n4)NC(=O)CS5)CC3)c12 | 544 nM |  |
| Cc1ccccc1C(=O)NC(NC(=S)Nc1ccc([N+](=O)[O-])cc1)C(Cl)(Cl)Cl (stereo not drawn) | 745 nM |  |
| CCc1cn2c3c(cc(C(=O)N[C@@H](Cc4ccccc4)[C@H](O)CNC4CCOCC4)cc13)N(CC(F)(F)F)S(=O)(=O)CC2 | 29.6 nM |  |

| Structure (SMILES) | XC50 (Plasmodium falciparum, 3D7) | XC50 |
| --- | --- | --- |
| c1cc(CNCCc2ccncc2)cc(-c2csc(-c3nc4ccccc4[nH]3)c2)c1 | 258 nM |  |
| O=[N+]([O-])c1ccc(Nc2nc(N/N=C/c3cc(Cl)cc(Cl)c3O)nc(Nc3ccccc3)n2)cc1 | 671 nM |  |
| N=C(N)Nc1nc(CCCCCCCCc2csc(NC(=N)N)n2)cs1 | 598 nM |  |
| Cc1ccc2[nH]c(-c3ccc(C=CC(=O)NCc4ccc(Cl)c(Cl)c4)cc3)nc2c1 | 901 nM |  |
| COc1ccc2c(Nc3ccc(N4CCN(C)CC4)cc3)cc(C)nc2c1 | 719 nM |  |
| COC(=O)c1cc(C(O)CNC(C)CCCc2ccccc2)ccc1O (stereo not drawn) | 742 nM |  |
| CCCCNS(=O)(=O)c1ccc(NC(=O)c2cc([N+](=O)[O-])ccc2Cl)cc1 | 902 nM |  |
| Cn1c(NCc2cc(F)cc3c2OCOC3)nc2cc(Nc3ccnc(Nc4cccc(CS(C)(=O)=O)c4)n3)ccc21 | 149 nM |  |
| COc1cc(Cc2cnc(N)nc2N)cc(OCCCCNS(=O)(=O)C(F)(F)F)c1OC | 1040 nM |  |
| Cn1ccc2c3c(N)nc(N)nc3ccc21 | 902 nM |  |
| O=C(/C=C/c1ccsc1)N1CCC(CCN2CCC(c3c[nH]c4ccccc34)CC2)CC1 | 905 nM |  |
| Oc1c(C(Nc2ccccn2)c2ccco2)cc(Cl)c2cccnc12 (stereo not drawn) | 1010 nM |  |
| COc1cccc(Cn2ccc3c4c(N)nc(N)nc4ccc32)c1 | 3.2 nM |  |
| NCC1CCCN1Cc1ccc(-c2ccc(-c3nc4cc(F)ccc4[nH]3)cc2)cc1 (stereo not drawn) | 926 nM |  |
| Cc1ccc(-c2ccc3c(c2)C=C(C(=O)NC2CCN(CCNC(=O)c4cccs4)CC2)CCC3)cc1 | 227 nM |  |
| CCOC(=O)c1ccc(Nc2cc(Nc3ccc(C(=O)OCC)cc3)nc(C)n2)cc1 | 907 nM |  |
| CS(=O)(=O)CCNCc1cccc(-c2cc3c(Nc4ccc(OCc5cccc(F)c5)c(Cl)c4)ncnc3s2)c1 | 198 nM |  |
| Fc1cccc(COc2ccc(Nc3ncnc4ccc(-c5nnc(C(F)(F)F)o5)cc34)cc2Cl)c1 | 579 nM |  |
| CCCCCCN1CCCN(Cc2ccc(C(=O)Nc3cccc(CC)c3)cc2)CC1 | 670 nM |  |
| COc1cc(NC(=O)N2CCc3cc(OC)c(OCCN4CCCCC4)cc32)cc(C(F)(F)F)c1 | 1150 nM |  |
| O=C(NC1CCC(CN2CCC(c3c[nH]c4ccccc34)CC2)CC1)c1cc2ccccc2o1 (stereo not drawn) | 971 nM |  |
| O=C(Nc1ccccc1C(F)(F)F)NC1CCC(CN2CCC(c3c[nH]c4ccccc34)CC2)CC1 (stereo not drawn) | 784 nM | 946 nM |
| COc1cccc(C(=O)Nc2nc3c(s2)CCN(Cc2ccccc2N2CCNCC2)CC3)c1 | 888 nM |  |
| Cc1cc2nc(N=C3NC4(c5ccccn5)NC(=Nc5nc6cc(C)c(C)cc6[nH]5)NC4(c4ccccn4)N3)[nH]c2cc1C (stereo not drawn) | 683 nM |  |

| Structure (SMILES) | XC50 (Plasmodium falciparum, 3D7) | XC50 |
| --- | --- | --- |
| C=C(NC(=O)C1CCCCC1)C(=O)OC | 849 nM |  |
| COCCNC(=O)C1CCN(C(c2ccc(Cl)cc2)c2ccc(Cl)cc2)CC1 | 553 nM |  |
| CNC(=O)COc1ccc(Nc2nnc(-c3ccc(C)c(S(=O)(=O)NCC4CCCO4)c3)c3ccccc23)cc1 (stereo not drawn) | 933 nM |  |
| Nc1c(Cl)cc(C(O)CNCCCCCCCCCc2ccccn2)cc1Cl (stereo not drawn) | 863 nM |  |
| O=C(N[C@H]1CCN(CCc2ccc(O[C@H]3CCNC3)cc2)C1)c1ccc(Cl)c(Cl)c1 | 828 nM |  |
| Nc1nc(N)c2c(n1)CCc1cc(Br)ccc1-2 | 1130 nM |  |
| CN(C)CCCn1cncc1-c1ccc2ncnc(Nc3ccc(OCc4ccccc4)cc3)c2c1 | 524 nM |  |
| CCCCCCCCc1c(C)nc(C)c(C#N)c1O | 402 nM |  |
| O=C(C=Cc1cccs1)Nc1ccc(-c2nc3ccccc3[nH]2)cc1 | 1140 nM |  |
| Nc1nc(N)c2c(ccc3c2ccn3CCCF)n1 | 149 nM |  |
| CC(=O)Nc1cc(C(=O)Nc2cccc(-c3cccc(-c4nc5cc(C(F)(F)F)ccc5[nH]4)c3)c2)ccc1C | 215 nM |  |
| COc1ccc2c(c1)CC(CNC[C@H](O)c1cccc(Cl)c1)CC2 (stereo partly drawn) | 988 nM |  |
| CCCC(C(=O)OCCN(CC)CC)(c1ccc(Cl)cc1)c1ccc(Cl)cc1 | 880 nM |  |
| Cc1cccc2nc(-c3cccc(-c4cccc(NC(=O)Nc5ccsc5)c4)c3)[nH]c12 | 170 nM |  |
| CCN(CC)CCCN(CCCN(CC)CC)c1cc(C)nc(Nc2ccc(Br)cc2)n1 | 200 nM |  |
| COC(=O)c1noc(C)c1I | 802 nM |  |
| O=C(/C=C/c1ccc(Cl)cc1)NCCCCCN1CCC(C(=O)Nc2ccc(Cl)c(Cl)c2)CC1 | 766 nM |  |
| CCCCN(Cc1cc(Cl)c(OC)c(OC)c1)c1ccc(C(O)(C(F)(F)F)C(F)(F)F)cc1 | 194 nM |  |
| O=C(Nc1cccc(CN2CCN(Cc3ccc(O)cc3)CC2)c1)c1cc2ccccc2o1 | 1180 nM |  |
| COc1ccc(-c2ccc(NC(=O)c3ccc(C#N)cc3)cc2)cc1CN1CCCN(C)CC1 | 152 nM |  |
| Cc1ccccc1C1CCN(C2CCC(NC(=O)c3cc(-c4ccccc4)oc3C)CC2)CC1 (stereo not drawn) | 1030 nM |  |
| Cc1cc2cc(/C=C/C(=O)NC3CCC(CCN4CCc5ccc(C#N)cc5CC4)CC3)ccc2[nH]1 (stereo not drawn) | 880 nM |  |
| CCCC1(C)CSc2ccccc2C(c2ccccc2)N1 (stereo not drawn) | 707 nM |  |
| NCCNS(=O)(=O)c1ccc(-c2ccnc3[nH]c(-c4ccncc4)cc23)cc1 | 840 nM |  |

| Structure (SMILES) | XC50 (Plasmodium falciparum, 3D7) | XC50 |
| --- | --- | --- |
| COc1ccc2nccc(N3CCN(CCNCc4ccc5c(n4)NC(=O)CS5)CC3)c2n1 | 843 nM |  |
| O=C(Nc1cccc(-c2cccc(-c3nc4cc(F)ccc4[nH]3)c2)c1)Nc1ccc(F)c(F)c1F | 89.1 nM |  |
| Cc1c(Cc2ccc(F)cc2)c(Cl)nc2nc(N)nc(N)c12 | 861 nM |  |
| c1csc(-c2nc(NCC3CCCO3)ncc2-c2ccsc2)n1 (stereo not drawn) | 487 nM |  |
| O=C(/C=C/c1cccc(F)c1)NC1CCC(CN2CCC(c3c[nH]c4ccccc34)CC2)CC1 (stereo not drawn) | 713 nM | 866 nM |
| O=C(Nc1ccc(-c2ccc(-c3nc4ccccc4[nH]3)s2)cc1)Nc1ccc(Cl)c(Cl)c1 | 165 nM |  |
| COc1ccc2nc(N3CCNCC3)nc(NCCCc3ccccc3)c2c1 | 1000 nM |  |
| O=C(N[C@@H](CC1CCCCC1)C(=O)NC1CCCCCC1)c1ccc(O)c(-c2ccc(Cl)c(Cl)c2)c1 | 102 nM |  |
| COc1cc(F)c2ncc(Cl)c([C@@H](O)CN3CCC(NCc4cc5c(cn4)OCCO5)CC3)c2c1 | 102 nM |  |
| Cc1cc(NCCC(=O)NCCOc2ccccc2)nc(NCCc2ccc(F)cc2)n1 | 940 nM |  |
| Nc1cccc(CNCc2cccc(-c3csc(-c4nc5ccccc5[nH]4)c3)c2)c1 | 685 nM |  |
| O=C(Cc1ccc(NC(=O)c2ccc(O)c(-c3cccc([N+](=O)[O-])c3)c2)cc1)NCCN1CCCCC1 | 895 nM |  |
| Clc1ccc(-c2cc(-c3csc(NCCN4CCOCC4)n3)on2)c(Cl)c1 | 660 nM |  |
| Nc1ccnc(N2CCC(CCOc3cc(C(F)(F)F)nc4c(C(F)(F)F)cccc34)CC2)c1 | 792 nM |  |
| O=C(NCCC1CCN(CCc2c[nH]c3ccccc23)CC1)Nc1ccc(Cl)c(Cl)c1 | 834 nM |  |
| Cc1cc(NC(=O)c2cccs2)ccc1OC1CCN(Cc2ccc(C#N)cc2)C1 (stereo not drawn) | 847 nM |  |
| O=C(NCCCCNCC(Cc1cccc(O)c1)c1ccccc1)c1ccc(NC(=O)c2ccc(Cl)cc2)cc1 (stereo not drawn) | 1040 nM |  |
| CCOC(=O)CNC(=O)N(CCN(Cc1ccccc1)C(=O)NCC(=O)OCC)Cc1ccccc1 | 769 nM |  |
| NC(=O)c1ccccc1OCC(=O)Nc1ccc(-c2cccc(-c3nc4cc(C(F)(F)F)ccc4[nH]3)c2)cc1 | 978 nM |  |
| CNc1cc(-c2ccc3ccnc(N)c3c2)nc(N)n1 | 119 nM |  |
| Cn1cncc1CCN(Cc1ccc(-c2ccc(C(F)(F)F)cc2)cc1)C(=O)Cn1c(CCc2cccc(F)c2F)cc(=O)c2cccnc21 | 853 nM |  |
| O=C(Nc1ccc(-c2ccccc2)cc1)Nc1cccc(Cn2ncc(N3CCNCC3)c(Cl)c2=O)c1 | 456 nM |  |
| O=C(C=Cc1ccc(F)c(Br)c1)NC1CCC(CN2CCC(c3c[nH]c4ccccc34)CC2)CC1 (stereo not drawn) | 789 nM | 842 nM |
